Series [1] is described as follows: Adverse effects: food consumption, weight gain, body weights in transplanted NOD mice. It counts as in vivo. Here is the method: (§1) Mice were treated with either 400 picograms of 2AMD/mouse/day or with vehicle. 2AMD was administered by addition of the analog in the vehicle to LabDiet 5K52 (PMI Nutrition, Brentwood, Miss.). In order to deliver the designated dose of 2AMD, a stock solution of the analog was dissolved in EtOH, vortexed for 3 min, and the analog concentration was determined by spectrophotometry. Based on pre-determined diet consumption, diet was prepared to provide 400 pg of 2AMD/mouse/day. The diets were solidified with molten agar (USB Corporation, Cleveland, Ohio). Controls were fed diet prepared as described above but the vehicle containing no 2AMD. Mice in each group were fed either 2AMD diet or vehicle diet from the day of diabetes determination until the completion of the study.

Series [2] is described as follows: Serum calcium analysis in transplanted NOD mice. The conditions noted are these: 400 pg/day. It counts as in vivo. Here is the method: as §1
Blood was collected from the orbital sinus 3 weeks after initiation of control or 2AMD treatment and every 3 weeks thereafter. Blood samples were spun at 2,938 g for 15 min, followed by a second and third spin at 16,883 g, each for 2 min. Serum calcium levels were determined by atomic absorption in 0.1% LaCl3.

The subject of series [3] is insulin-2 knockout non-obese diabetic mouse. The conditions noted are these: rodent model of spontaneous T1D; Kiekhaefer et al. 2011; cited from earlier work.
The test system of another series is Female NOD mice. In words: Islet transplantation in spontaneously diabetic NOD mice: duration of normoglycemia / graft survival. The class given is in vivo. Conditions: for Duration of Normoglycemia: 2 mice; for diabetes reversal / indefinite survival of syngeneic islet grafts: 400 pg/mouse/day.
Setting [4] is: chow-based diet, 800 islet equivalents.
Setting [5] is: purified diet, 400 islet equivalents.

With “2α-methyl-19-nor-(20S)-1α,25-dihydroxyvitamin D3 [2AMD]”, the “adverse effects as revealed by food consumption, weight gain and comparative body weights” value in series [1] (400 pg/day, chow-based diet, 800 islet equivalents) was “No adverse effects”. For the same substance, the “food consumption, weight gain, and comparative body weights” value in series [1] (2AMD purified diet group, 400 islet equivalents, attributed to hydration of two dietary components (early satiety), reversed after replacement at week 22) was “reduced”. For the same substance, the average serum calcium in series [2] (chow diet, 400 islet equivalents, control 10.0 mg/dl) is 10.7 mg/dL; in series [2] (chow-based diet, 800 islet equivalents, control mice 9.8 mg/dl), 10.3 mg/dL; in series [2] (purified diet, 400 islet equivalents, control 10.0 mg/dl), 10.8 mg/dL. Further, in series [3], the “effect on development of type 1 diabetes” value was “prevented the transition from insulitis to diabetes”. The “Duration of Normoglycemia” value in the series on Female NOD mice (chow diet, 400 islet equivalents, 400 pg 2AMD/mouse/day, vehicle control 28 days) is ≥ 83 days; with Female NOD mice (chow-based diet, 800 islet equivalents, 400 pg 2AMD/mouse/day in diet, vehicle control 110 days), > 230 days. In addition, the diabetes reversal in the series with Female NOD mice (setting [4]) and with Female NOD mice (setting [5]) was 100% in each case. In addition, the “indefinite survival of syngeneic islet grafts” value in the series with Female NOD mice (setting [4]) and in the series on Female NOD mice (setting [5]) was 100% each time. In the series with Female NOD mice (murine model, 2AMD treatment vs untreated control), the “additional days of continuing normoglycemia compared to the untreated control” value is reported as “at least 130 days”.

The values are drawn from patent US20130295083A1, “2a-Methyl-19-nor-(20S)-1a,25-dihydroxyvitamin D3 (2AMD) or 2 methylene-19-nor-(20S)-1a,25-dihydroxyvitamin D3 (2MD) Support Survival and Function of Transplanted Islet Cells In Type 1 Diabetes” (Wisconsin Alumni Research Foundation, priority 2012, published 2013).
